Test results from publication PMC10223284, “Category-Based Toxicokinetic Evaluations of Data-Poor Per- and Polyfluoroalkyl Substances (PFAS) using Gas Chromatography Coupled with Mass Spectrometry” (Toxics, 2023).
Where “and” joins values, the source holds several entries; their conditions need not be identical. Equal entries are not always repeated.

Assays:
human plasma [1] = experiment: Ultracentrifugation (UC) plasma protein binding assay, fraction unbound in plasma (fup); settings: for Mean fu: fraction unbound in human plasma, ultracentrifugation, some values based on eLOQ; for Fup.Med: median fraction unbound in plasma; for Fup.Med / Fup.point: UC assay Level4; for Fup.point: point estimate of fraction unbound in plasma; for Fraction Unbound (fu), replicates A, B, C: single replicate of one UC run (aqueous fraction / Time 5 hr); for Aqueous Fraction / Aqueous Fraction, Run-specific Avg: amount measured in aqueous fraction after ultracentrifugation, unit not given; for Aqueous Fraction: replicates A, B, C; for Aqueous Fraction, Run-specific Avg: run average
human plasma [2] = experiment: Chemical stability in plasma over the UC assay time course (T5hr/T1hr); settings: for PPB_Stab_Fail: flag for stability failure in the plasma protein binding assay (1 = fail, 0 = pass); for Fstable.Med: median fraction stable in plasma, UC assay Level4; for Stability (T5hr/ T1hr), replicates A, B, C: single replicate of one UC run; for % remaining_PPB: chemical remaining in plasma over the PPB assay time course, NS = no significant loss; for Time 1 hr / Time 1 hr, Run-specific Avg: amount measured in plasma sample at 1 hr; for Time 1 hr / Time 5 hr: replicates A, B, C; for Time 1 hr / Time 1 hr, Run-specific Avg / Time 5 hr / Time 5 hr, Run-specific Avg: unit not given; for Time 1 hr, Run-specific Avg / Time 5 hr, Run-specific Avg: run average; for Time 5 hr / Time 5 hr, Run-specific Avg: amount measured in plasma sample at 5 hr
[3] = Abiotic loss in negative controls of the hepatocyte clearance assay (cell-free media, metabolically inactivated hepatocytes); assay type: in vitro ADME; settings: flag for stability failure in hepatocyte clearance assay controls (1 or Fst = fail, 0 = pass)
Method: The hepatic metabolic stability assay measures the loss of a parent compound over time in a substrate-depletion approach. Briefly, hepatocyte suspensions, after a viability assessment, were diluted in complete William’s medium E (containing dexamethasone and cell maintenance cocktail B) prior to addition to 96-well polypropylene plates containing an equal volume of media spiked with the test compound (1 μM assay concentration; assay cell density = 50,000 cells/100 μL) and maintained at 37 °C with shaking. At each time point, relevant plates were crashed with an equal volume of ice-cold acetonitrile, centrifuged, and supernatant transferred to a new plate prior to storage at <−70 °C until quantitative analysis. Controls, run in parallel, included cell-free (i.e., media only) and metabolically inactivated hepatocytes to evaluate abiotic chemical stability in the aqueous media matrix with and without cellular protein. In preliminary runs, these controls were run at T0 and T240 only. If significant instability was noted, the hepatocyte clearance assay was rerun, including cell-free samples at each time point and metabolically inactivated hepatocytes at selected time points.
Negative controls, including media only and metabolically inactivated hepatocyte controls, were included to monitor abiotic loss (i.e., background clearance) during the assay. Where significant compound loss occurred using the analysis described above, background clearance rates were calculated and used to background-adjust hepatic metabolic clearance rates. Where chemicals were cleared prior to the end of the analysis, at 240 min (T240), the corresponding negative control timepoint was used for background subtraction. Any chemicals displaying a 50% or more abiotic loss at T120 were deemed unstable and were excluded from further analyses.

[4] = average of one UC run (run date in line above)
[5] = mean T5hr/T1hr ratio over all replicates and runs, plasma
[6] = mean T5hr/T1hr ratio in plasma over all replicates/runs

| SMILES | Mean fu (human plasma [1]) | Fup.Med (human plasma [1]) | Fup.point (human plasma [1]) | PPB_Stab_Fail (human plasma [2]) | Fstable.Med (human plasma [2]) | Hep_Stab_Fail [3] | % remaining_PPB (human plasma [2]) [%] | other results |
| --- | --- | --- | --- | --- | --- | --- | --- | --- |
| OCC(F)(F)C(F)(F)C(F)(F)C(F)(F)C(F)(F)C(F)F | 0.0537 | 0.0526 | 0.0549 | 0 | 0.222 | 1 | – | Mean Fu (human plasma [1]; mean fraction unbound over all replicates and runs, UC assay, human plasma): 0.054; Fraction Unbound (fu), replicates A, B, C (human plasma [1]): 0.052 and 0.046 and 0.064; Stability (T5hr/ T1hr), Run-specific Avg (human plasma [2]; [4]): 0.870; Mean Stability (human plasma [2]; [5]): 0.875; Stability (T5hr/ T1hr), replicates A, B, C (human plasma [2]): 0.819 and 1.002 and 0.803 |
| FC(F)(F)C(F)(F)C(F)(F)C(F)(F)C(F)(F)C(F)(F)C(F)(F)CCI [1-Iodo-1H,1H,2H,2H-perfluorononane] | 0.1123 | 0.108 | 0.112 | 0 | 0.358 | Fst | 51.7 | – |
| FC(F)(F)C(F)(F)C(F)(F)C(F)(F)C(F)(F)C(F)(F)C(F)(F)I [1-Iodopentadecafluoroheptane] | – | 0.907 | – | 1 | 0.202 | 1 | 16 | – |
| FC(F)(F)C(F)(F)C(F)(F)C(F)(F)CCI [1H,1H,2H,2H-Perfluorohexyl iodide] | 0.0980 | 0.0824 | 0.0905 | 0 | 0.99 | 1 | – | Aqueous Fraction (human plasma [1]): 429.404 and 197.254 and 248.159; Aqueous Fraction, Run-specific Avg (human plasma [1]): 291.61; Fraction Unbound (fu), Run-specific Avg (human plasma [1]; [4]): 0.10; Fraction Unbound (fu), replicates A, B, C (human plasma [1]): 0.08012 and 0.1098 and 0.1042; Time 1 hr (human plasma [2]): 4814.29 and 5234.67 and 5102.52; Time 1 hr, Run-specific Avg (human plasma [2]): 5050.49; Time 5 hr (human plasma [2]): 2541.5 and 2572.68 and 2719.11; Time 5 hr, Run-specific Avg (human plasma [2]): 2557.09; Stability (T5hr/ T1hr), Run-specific Avg (human plasma [2]; average of one UC run): 0.506; Stability (T5hr/ T1hr), Run-specific Avg (human plasma [2]; [4]): 0.871; Mean Stability (human plasma [2]; [6]): 0.517; Mean Stability (human plasma [2]; [5]): 0.928; Stability (T5hr/ T1hr), replicates A, B, C (human plasma [2]): 1.126 and 0.894 and 0.765 |
| FC(F)(F)C(F)(F)C(F)(F)CC1CO1 (stereo not drawn) [1H,1H-Heptafluorobutyl epoxide] | – | – | – | 1 | – | 1 | 0 | – |
| NCC(F)(F)C(F)(F)C(F)(F)C(F)(F)C(F)(F)C(F)(F)F [1H,1H-Perfluoroheptylamine] | 0.129 | 0.129 | 0.121 | 0 | 0.0946 | – | 54 | Aqueous Fraction (human plasma [1]): 488.915 and 403.165 and 617.709; Aqueous Fraction, Run-specific Avg (human plasma [1]): 503.26; Fraction Unbound (fu), Run-specific Avg (human plasma [1]; average of one UC run): 0.13; Time 1 hr (human plasma [2]): 7913.09 and 7505.36 and 6518.71; Time 1 hr, Run-specific Avg (human plasma [2]): 7312.39; Time 5 hr (human plasma [2]): 3934.26 and 4036.14 and 3821.62; Time 5 hr, Run-specific Avg (human plasma [2]): 3985.20; Stability (T5hr/ T1hr), Run-specific Avg (human plasma [2]; average of one UC run): 0.545; Mean Stability (human plasma [2]; [6]): 0.541 |
| NCC(F)(F)C(F)(F)C(F)(F)C(F)(F)C(F)(F)C(F)(F)C(F)(F)C(F)(F)F [1H,1H-Perfluorononylamine] | 0.043 | 0.0402 | 0.0359 | 0 | 0.177 | – | 60 | Aqueous Fraction (human plasma [1]): 414.774 and 241.353 and 265.963; Aqueous Fraction, Run-specific Avg (human plasma [1]): 307.36; Fraction Unbound (fu), Run-specific Avg (human plasma [1]; average of one UC run): 0.0431; Time 1 hr (human plasma [2]): 12346.8 and 12130.3 and 11151.5; Time 1 hr, Run-specific Avg (human plasma [2]): 11876.18; Time 5 hr (human plasma [2]): 7604.95 and 6828.46 and 6766.48; Time 5 hr, Run-specific Avg (human plasma [2]): 7216.71; Stability (T5hr/ T1hr), Run-specific Avg (human plasma [2]; average of one UC run): 0.608; Mean Stability (human plasma [2]; [6]): 0.598 |
| C=CC(=O)OCC(F)(F)C(F)(F)C(F)(F)C(F)(F)C(F)(F)C(F)(F)C(F)(F)F [1H,1H-Perfluorooctyl acrylate] | – | – | – | 1 | – | 1 | 6 | – |
| C=C(C)C(=O)OCCC(F)(F)C(F)(F)C(F)(F)C(F)(F)C(F)(F)C(F)(F)F [6:2 Fluorotelomer methacrylate] | 0.21 | 0.102 | 0.0856 | 0 | 0.0566 | – | 54 | – |
| OCCC(F)(F)C(F)(F)C(F)(F)C(F)(F)C(F)(F)C(F)(F)C(F)(F)C(F)(F)F [8:2 Fluorotelomer alcohol] | 0.0170 | 0.0168 | 0.0243 | 0 | 0.162 | – | 100 | Aqueous Fraction (human plasma [1]): 192.869 and 61.5201 and 158.809; Aqueous Fraction, Run-specific Avg (human plasma [1]): 137.73; Fraction Unbound (fu), Run-specific Avg (human plasma [1]; average of one UC run): 0.017; Time 1 hr (human plasma [2]): 10349.3 (2×) and 9635.91; Time 1 hr, Run-specific Avg (human plasma [2]): 10111.53; Time 5 hr (human plasma [2]): 7909.09 and 8525.8 and 8231.76; Time 5 hr, Run-specific Avg (human plasma [2]): 8217.44; Stability (T5hr/ T1hr), Run-specific Avg (human plasma [2]; average of one UC run): 0.813; Mean Stability (human plasma [2]; [6]): 0.814 |
| CC(C)(C)C(=O)CC(=O)C(F)(F)C(F)(F)C(F)(F)F [(Heptafluorobutanoyl)pivaloylmethane] | – | – | – | – | – | 1 | – | – |
| FC(F)(F)C(F)(F)CNCC(F)(F)C(F)(F)F [Bis(1H,1H-perfluoropropyl)amine] | 0.0477 | 0.0412 | 0.0433 | 0 | 0.999 | – | – | Aqueous Fraction (human plasma [1]): 403.75 and 491.531 and 501.978; Aqueous Fraction, Run-specific Avg (human plasma [1]): 465.75; Fraction Unbound (fu), Run-specific Avg (human plasma [1]; average of one UC run): 0.05; Mean Fu (human plasma [1]; mean fraction unbound in human plasma over all UC replicates/runs): 0.048; Time 1 hr (human plasma [2]): 11322.6 and 13421.7 and 13036.1; Time 1 hr, Run-specific Avg (human plasma [2]): 12593.46; Time 5 hr (human plasma [2]): 11284.3 and 10114.7 and 8561.71; Time 5 hr, Run-specific Avg (human plasma [2]): 10699.45; Stability (T5hr/ T1hr), Run-specific Avg (human plasma [2]; average of one UC run): 0.850; Mean Stability (human plasma [2]; [6]): 0.799 |
| FC(F)(F)C(F)(F)C(F)(F)C(F)(F)C(F)(F)C(F)(F)CCS [DTXSID20379947] | – | – | – | 1 | – | – | 0 | – |
| CO[Si](C)(CCC(F)(F)C(F)(F)C(F)(F)C(F)(F)C(F)(F)C(F)(F)F)OC [DTXSID40235137] | – | – | – | 1 | – | 1 | 0 | – |
| CC(O)C(F)(F)C(F)(F)F (stereo not drawn) [DTXSID70880134] | – | – | – | 1 | – | 1 | 0 | – |
| C=CC(=O)OCC(F)(F)C(F)(F)C(F)(F)C(F)(F)COC(=O)C=C [DTXSID80379721] | – | – | – | 1 | – | 1 | 0 | – |
| OCC(F)(F)OC(F)(F)C(F)(F)OC(F)(F)C(F)(F)OC(F)(F)F [Fluorinated triethylene glycol monomethyl ether] | – | – | – | 1 | – | 1 | 0 | – |
